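Grown in 96-well plates, cells were treated for 48 hours with each compound at five concentrations. Insufficient inhibition: endpoint recorded as highest concentration tested. TGI denotes the concentration required for complete inhibition of growth.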
Experiments:
Test in all cases: NCI-60 cell line screen, 48 h
[1] = tested on: NCI-H23 lung
[2] = tested on: OVCAR-4 ovarian
[3] = tested on: A498 renal
[4] = tested on: OVCAR-3 ovarian
[5] = tested on: SN12C renal
[6] = tested on: BT-549 breast
[7] = tested on: HCT-116 colon
[8] = tested on: RPMI-8226 leukemia
[9] = tested on: MCF7 breast
[10] = tested on: U251 CNS
[11] = tested on: HL-60(TB) leukemia
[12] = tested on: OVCAR-5 ovarian
[13] = tested on: RXF 393 renal
[14] = tested on: SF-295 CNS
[15] = tested on: MOLT-4 leukemia
[16] = tested on: SK-OV-3 ovarian
[17] = tested on: KM12 colon
[18] = tested on: MDA-N
[19] = tested on: HCC-2998 colon

Structure (SMILES)	TGI [1]	TGI [2]	TGI [3]	TGI [4]	TGI [5]	TGI [6]	TGI [7]	TGI [8]	TGI [9]	TGI [10]	TGI [11]	TGI [12]	TGI [13]	TGI [14]	TGI [15]	TGI [16]	TGI [17]	TGI [18]	TGI [19]
Cc1cccc(N=C/C=C(\Cl)c2ccc3ccccc3c2)c1	34.5 µM	41.2 µM	> 100 µM	32.3 µM	41.1 µM	44.5 µM	9.02 µM	29 µM	> 95.9 µM	31 µM	38.5 µM	> 65.6 µM	> 56.9 µM	> 58.7 µM	8.19 µM	53.5 µM	41 µM	–	–
Cc1cnc2c(c1)C(=O)N(c1ccc([N+](=O)[O-])cc1)S2(=O)=O	> 100 µM	> 100 µM	> 100 µM	> 100 µM	> 100 µM	> 100 µM	> 100 µM	> 100 µM	> 100 µM	> 100 µM	> 100 µM	> 100 µM	–	> 100 µM	> 100 µM	> 100 µM	> 100 µM	> 100 µM	> 100 µM
COc1ccc2c(c1)-c1nc(=O)n(CCCN(C)C)c3ccc([N+](=O)[O-])c(c13)N2	4.5 µM	7.34 µM	31 µM	19.4 µM	13.8 µM	16.8 µM	12.8 µM	0.694 µM	18.2 µM	9.03 µM	4.39 µM	4.89 µM	–	20.8 µM	0.841 µM	17.3 µM	4.02 µM	19.2 µM	17.7 µM
O=C(O)C1=CN(c2ccncc2)C(c2ccco2)=CC1c1ccccc1[N+](=O)[O-] (stereo unspecified)	29.1 µM	28.2 µM	28.7 µM	21.2 µM	29.1 µM	26.9 µM	3.66 µM	> 24.5 µM	10.7 µM	24.2 µM	> 100 µM	25.5 µM	15.5 µM	26.2 µM	14 µM	33.6 µM	3.4 µM	–	3.62 µM
CCC(c1ccc(OC)cc1)C1NC(=S)NC1=O (stereo unspecified)	> 50 µM	> 50 µM	> 50 µM	> 50 µM	> 50 µM	–	> 50 µM	> 50 µM	> 50 µM	> 50 µM	47.3 µM	> 50 µM	> 50 µM	> 50 µM	> 50 µM	> 50 µM	> 50 µM	> 50 µM	> 50 µM
O=C1CCN2C(=N1)Sc1ccccc12	> 100 µM	> 100 µM	–	> 100 µM	> 100 µM	> 100 µM	> 100 µM	> 100 µM	> 100 µM	> 100 µM	> 100 µM	> 100 µM	> 100 µM	> 100 µM	> 100 µM	> 100 µM	> 100 µM	> 100 µM	–
C/C(=C\CNc1ncnc2c1ncn2CCC(=O)OC(C)(C)C)CO	> 100 µM	> 100 µM	> 100 µM	> 100 µM	> 100 µM	–	> 100 µM	> 100 µM	> 100 µM	–	> 100 µM	> 100 µM	> 100 µM	> 100 µM	> 100 µM	> 100 µM	> 100 µM	> 100 µM	> 100 µM
CN1C(C)(C)CC(=O)C(Br)C1(C)C (stereo unspecified)	> 100 µM	> 100 µM	–	> 100 µM	> 100 µM	> 100 µM	–	> 100 µM	> 100 µM	> 100 µM	> 100 µM	> 100 µM	–	> 100 µM	> 100 µM	> 100 µM	> 100 µM	> 100 µM	–
N#CCC1C2CC3C(C2=O)C13 (stereo unspecified)	> 100 µM	> 100 µM	> 100 µM	> 100 µM	> 100 µM	–	> 100 µM	> 100 µM	> 100 µM	> 100 µM	–	> 100 µM	> 100 µM	> 100 µM	> 100 µM	> 100 µM	> 100 µM	> 100 µM	> 100 µM
CC1(C)SCc2nc3ccccc3n21	> 100 µM	> 100 µM	> 100 µM	> 100 µM	> 100 µM	–	> 100 µM	> 100 µM	> 100 µM	> 100 µM	> 100 µM	> 100 µM	> 100 µM	> 100 µM	> 100 µM	> 100 µM	> 100 µM	> 100 µM	> 100 µM
CC(CNC(=O)c1ccccc1)(CNC(=O)c1ccccc1)[N+](=O)[O-]	> 100 µM	–	–	–	> 100 µM	> 100 µM	> 100 µM	> 100 µM	> 100 µM	> 100 µM	> 100 µM	> 100 µM	> 100 µM	> 100 µM	> 100 µM	> 100 µM	> 100 µM	> 100 µM	–
CCCn1c(=O)c2nn3c(=O)n(CCC)c(=O)c3nn2c1=O	> 100 µM	> 100 µM	–	> 100 µM	> 100 µM	> 100 µM	> 100 µM	> 100 µM	> 100 µM	> 100 µM	> 100 µM	> 100 µM	> 100 µM	> 100 µM	> 100 µM	> 100 µM	> 100 µM	> 100 µM	> 100 µM
O=C(Cc1ccccc1)NN1C(=O)C(Cl)C1c1cccc([N+](=O)[O-])c1 (stereo unspecified)	> 92.2 µM	> 92.9 µM	> 100 µM	> 86.8 µM	> 100 µM	–	> 84.2 µM	47.8 µM	–	> 100 µM	29.5 µM	> 100 µM	93 µM	> 100 µM	45 µM	> 100 µM	> 100 µM	–	> 100 µM
Cc1ccc(SCC(CF)OC(C)n2cnc3c(Cl)nc(N)nc32)cc1 (stereo unspecified)	> 100 µM	52.6 µM	–	> 100 µM	> 100 µM	> 100 µM	> 100 µM	> 100 µM	> 100 µM	> 100 µM	86.3 µM	> 100 µM	–	> 100 µM	> 100 µM	> 100 µM	> 100 µM	> 100 µM	> 100 µM
O=C1CC(C(OCc2ccccc2)C(OCc2ccccc2)C(OCc2ccccc2)C(COCc2ccccc2)OCc2ccccc2)CC(=O)N1 (stereo unspecified)	> 100 µM	> 100 µM	> 100 µM	> 100 µM	> 100 µM	> 100 µM	–	> 100 µM	–	> 100 µM	> 100 µM	> 100 µM	> 100 µM	> 100 µM	> 100 µM	–	–	> 100 µM	> 100 µM
O=C(Oc1c(Br)cc(Br)cc1C(=O)Oc1ccccc1)C(=O)Oc1c(Br)cc(Br)cc1C(=O)Oc1ccccc1	46.6 µM	–	–	66.2 µM	97.4 µM	52 µM	31.6 µM	52.9 µM	60.8 µM	40.6 µM	> 100 µM	89.9 µM	27.2 µM	> 100 µM	55.1 µM	> 100 µM	84.1 µM	81.3 µM	> 100 µM
O=C1CCCC2=C1CC1=C(CCCC1=O)N2c1ccc([N+](=O)[O-])cc1	> 100 µM	> 100 µM	> 100 µM	> 100 µM	> 100 µM	> 100 µM	–	> 100 µM	> 100 µM	> 100 µM	> 100 µM	> 100 µM	> 100 µM	–	> 100 µM	> 100 µM	> 100 µM	–	> 100 µM
CCCNCC(O)CNc1ccc(NCC(O)CNCCC)c2c1C(=O)c1ccccc1C2=O (stereo unspecified)	12.2 µM	10.6 µM	23.5 µM	13.7 µM	7.67 µM	6.99 µM	8.31 µM	6.05 µM	7.5 µM	9.02 µM	18.9 µM	3.99 µM	–	–	7.6 µM	7.78 µM	17.3 µM	11.7 µM	3.21 µM
COc1ccc(NS(=O)c2c(C)cc(C)cc2C)cc1 (stereo unspecified)	> 100 µM	> 100 µM	–	> 100 µM	> 100 µM	> 100 µM	> 100 µM	> 100 µM	> 100 µM	> 100 µM	> 100 µM	> 100 µM	–	> 100 µM	> 100 µM	–	98.8 µM	> 100 µM	> 100 µM
CC(=O)OCC1OC(OC(C)=O)C(Nc2ncc(-c3ccc(C)cc3)s2)C(OC(C)=O)C1OC(C)=O (stereo unspecified)	31.9 µM	35.4 µM	–	35.1 µM	40.8 µM	36.7 µM	32.1 µM	64.3 µM	52.1 µM	31.6 µM	–	> 100 µM	29.6 µM	76.3 µM	49.2 µM	> 100 µM	–	35.3 µM	57.7 µM
CO[C@H]1O[C@@H]2OC3(C)CCC4[C@H](C)CCC([C@H]1C)[C@]42OO3 (stereo partly specified)	> 100 µM	> 100 µM	> 100 µM	> 100 µM	> 100 µM	–	> 100 µM	> 100 µM	–	> 100 µM	46.7 µM	> 100 µM	> 100 µM	> 100 µM	> 100 µM	> 100 µM	–	> 100 µM	> 100 µM
CCCCN(CCCC)CC(C(=O)Nc1ccc([N+](=O)[O-])cc1[N+](=O)[O-])/C(C)=N\NC(=O)C[N+](C)(C)C (stereo unspecified)	> 100 µM	> 100 µM	> 100 µM	> 100 µM	> 100 µM	–	> 100 µM	73.8 µM	–	> 100 µM	> 100 µM	> 100 µM	> 100 µM	> 100 µM	> 100 µM	> 100 µM	> 100 µM	–	> 100 µM
C/C1=C/C[C@@H](/C(C)=C/c2csc(C)n2)OC(=O)C[C@H](O)C(C)(C)C(=O)[C@H](C)[C@@H](O)[C@@H](C)CCC1	0.169 µM	0.472 µM	–	0.173 µM	0.209 µM	0.198 µM	0.173 µM	0.217 µM	0.231 µM	0.169 µM	–	0.189 µM	< 0.0001 µM	< 0.0001 µM	0.394 µM	0.214 µM	0.196 µM	–	0.125 µM
Fc1cccc(C2SCc3nc4cc5ccccc5cc4n32)c1 (stereo unspecified)	> 100 µM	> 100 µM	–	> 100 µM	> 100 µM	> 100 µM	> 100 µM	> 100 µM	> 100 µM	> 100 µM	–	> 100 µM	> 100 µM	> 100 µM	> 100 µM	> 100 µM	> 100 µM	> 100 µM	> 100 µM
COC1=CC(=O)c2c(cc3c(c2O)-c2c(OC)cc4cc5c(c(O)c4c2OC(=O)CC(C)(O)C3)C(=O)CC(C)(O)C5)C1=O (stereo unspecified)	2.46 µM	10.3 µM	4.42 µM	2.15 µM	3.27 µM	–	7.58 µM	5.85 µM	–	9.92 µM	5.56 µM	4.27 µM	3.89 µM	3.48 µM	6.67 µM	7.47 µM	8.98 µM	–	3.21 µM
CN1CC=C(c2cccn2C)CC1	> 100 µM	> 100 µM	–	> 100 µM	> 100 µM	> 100 µM	> 100 µM	> 100 µM	> 100 µM	> 100 µM	> 100 µM	> 100 µM	> 100 µM	> 100 µM	> 100 µM	> 100 µM	> 100 µM	> 100 µM	> 100 µM
CC1CCC2CC1NC(=O)CCOCCC(=O)NC2(C)C (stereo unspecified)	> 100 µM	> 100 µM	–	> 100 µM	> 100 µM	> 100 µM	> 100 µM	–	> 100 µM	> 100 µM	> 100 µM	> 100 µM	–	> 100 µM	> 100 µM	> 100 µM	> 100 µM	> 100 µM	> 100 µM

Reference: PubChem BioAssay (NCI)
